Reference: patent US8524782B2, “Key intermediate for the preparation of Stilbenes, solid forms of Pterostilbene, and methods for making the same” (Laurus Labs Private Limited, priority 2008, dated 2013)
Where “and” joins values, the source holds several entries; their conditions need not be identical. Equal entries are not always repeated.

Legend:
[1] = Water vapor adsorption/desorption (WVS); type: physicochemical; details: for Sorption (5-95-5% RH): adsorption 5 to 95% RH; for Desorption (5-95-5% RH): desorption 95 to 5% RH
Protocol: Water vapor adsorption/desorption (WVS) data were collected on a VTI SGA-100 Vapor Sorption Analyzer. NaCl and PVP were used as calibration standards. Samples were not dried prior to analysis. Adsorption and desorption data were collected over a range from 5 to 95% RH at 10% RH increments under a nitrogen purge. The equilibrium criterion used for analysis was less than 0.0100% weight change in 5 minutes with a maximum equilibration time of 3 hours if the weight criterion was not met. Data were not corrected for the initial moisture content of the samples.

[2] = Enthalpy (heat) of fusion from DSC data; type: physicochemical; details: for Heat of fusion (ΔH), single analyses / Heat of fusion (ΔH), average: DSC 50° C./min; for Heat of fusion (ΔH), average: average of three
Protocol: In Table 4, for Form I, the 26.4 kJ/mol value for the enthalpy of fusion was calculated from a single 10° C./min pattern whereas the 25.6 kJ/mol value was calculated as an average from three 50° C./min patterns. DSC results for Form III indicated a melt onset at 76° C., while HSM results indicated it was 81° C. Material decomposition was observed upon heating above approximately 170° C. The minor weight loss observed up to 150° C. was attributed to loss of residual solvent. FIG. 1 is a DSC stack plot for Forms I-V of Pterostilbene. Differential Scanning Calorimetry (DSC) analyses were performed using a TA Instruments (New Castle, Del.) Q2000 differential scanning calorimeter, equipped with a refrigerated cooling system (RCS). Temperature calibration was performed using NIST traceable indium metal. The sample was placed into an aluminum DSC pan, and the weight was accurately recorded. The pan was covered with a lid perforated with a laser pinhole, and the lid was hermetically sealed. A weighed, crimped aluminum pan was placed on the reference side of the cell. The sample cell was equilibrated at sub-ambient temperature and heated under a nitrogen purge at a rate of 10° C./minute. Higher and lower heating rates were also investigated (from 1 to 300° C./min). Alternatively, data were obtained using a modulation amplitude of +/−0.8° C. and a 60 second period with an underlying heating rate of 2° C./min from −50 to 150° C. The reported glass transition temperatures are obtained from the inflection of the step change in the reversible heat flow versus temperature curve. Thermodynamic stability relationships of various forms of Pterostilbene were studied by calculating the heat of fusion for each form (from DSC data, see table 4) and through slurry interconversion experiments in toluene. Heat of fusion (ΔH) for Form I was determined (from […] DSC data) to be approximately 100 J/g or 25.6 kJ/mol. […] Heat of fusion for Form II was determined (from 10° C./min DSC data) to be approximately 92 J/g or 23.6 kJ/mol. […] Heat of fusion for Form III was estimated (from 50° C./min DSC data) to be approximately 75 J/g or 19.2 kJ/mol.

[3] = Thermogravimetric (TG) analysis; type: physicochemical; details: TGA, up to 150° C., attributed to residual solvent
Protocol: In Table 4, for Form I, the 26.4 kJ/mol value for the enthalpy of fusion was calculated from a single 10° C./min pattern whereas the 25.6 kJ/mol value was calculated as an average from three 50° C./min patterns. DSC results for Form III indicated a melt onset at 76° C., while HSM results indicated it was 81° C. Material decomposition was observed upon heating above approximately 170° C. The minor weight loss observed up to 150° C. was attributed to loss of residual solvent. FIG. 1 is a DSC stack plot for Forms I-V of Pterostilbene.
Thermogravimetric (TG) analyses were performed using a TA Instruments Q5000 IR thermogravimetric analyzer. Temperature calibration was performed using nickel and Alumel. Each sample was placed in an aluminum pan. The pan was hermetically sealed with a lid that was opened using a punching mechanism just before being inserted into the TG furnace. The furnace was heated under nitrogen at a rate of 10° C./minute.

[4] = Intrinsic dissolution rate in water; type: physicochemical
Protocol: The polymorphs of Pterostilbene described herein can also be characterized by their respective dissolution rates. […] (open symbols) and 37° C. (filled symbols). […] UV-VIS spectrophotometry: samples were analyzed using a SpectraMax M2 Microplate Reader. Wavelength calibration and photometric accuracy was performed using the SpectraMax […] software as an internal calibration of the instrument. The instrument was blanked with an empty quartz glass plate. Samples were analyzed in the UV range at ambient temperature in the wells of a 96-well quartz plate. The absorbance spectra of water was collected and subtracted from the spectra of the drug solutions to calculate concentrations. Samples were performed in duplicate and absorbance data was averaged. The standard curve was determined based on absorbance at 310 nm.

[5] = Slurry interconversion experiments in toluene (XRPD of recovered solids); type: physicochemical; details: from enthalpy of fusion, melting point and slurry interconversion in toluene
Protocol: Thermodynamic stability relationships of known forms of Pterostilbene were studied by calculating the enthalpy of fusion for each form (from DSC data, Table 4) and through slurry interconversion experiments in toluene in Table 1.
Saturated solutions of Pterostilbene were prepared at ambient temperature in toluene. The solutions were filtered and seeds of each form were added. The samples were agitated for days and the solids recovered by vacuum filtration. The solids were collected and allowed to dry under ambient conditions.

[6] = Physical stability of amorphous Pterostilbene under ambient conditions; type: physicochemical
Description: FIG. 9 is the x-ray diffraction pattern of x-ray amorphous Pterostilbene. By use the term “x-ray amorphous” what is meant is a material whose powder x-ray powder diffraction pattern is consistent with an amorphous “halo” as that term is understood in the art. By inspection, one of ordinary skill in the art would recognize that the pattern in FIG. 9 does represents a material without any significant crystallinity. However, the material may be nanocrystalline or some other disordered solid. The glass transition temperature of amorphous Pterostilbene was experimentally determined (by modulated DSC) to be approximately 4° C.

[7] = cited from earlier work
[8] = cited from earlier work; remark: listed apart in the source
[9] = Stress conditions, stability of Pterostilbene Form II; type: physicochemical
Description: Stress conditions were employed to evaluate the stability of Pterostilbene Form II. […] Ambient and elevated temperature water slurry experiments starting with Form II material were set up in an effort to produce a hydrate of Pterostilbene.

[10] = DSC 50° C./min (average of three for Forms I and II)

**Q.** For `COc1cc(/C=C/c2ccc(O)cc2)cc(OC)c1` [Form I], which “Sorption (5-95-5% RH)” value [1] is on record?
**A.** The value was 0.2/0.2 weight %.

**Q.** And the “Desorption (5-95-5% RH)” value [1]?
**A.** Its value is 0.2/0.2 weight %.

**Q.** And the Enthalpy of fusion ([2]; DSC 10° C./min)?
**A.** Its Enthalpy of fusion is ~6.12 kcal/mol and 6.31 kcal/mol.

**Q.** And the “Heat of fusion (ΔH)” value ([2]; DSC 10° C./min)?
**A.** The value was “approximately 100 J/g”.

**Q.** What about the Enthalpy of fusion ([2]; DSC 10° C./min, listed as I) of the same compound?
**A.** The Enthalpy of fusion was 6.12 kcal/mol.

**Q.** And the “Heat of fusion (ΔH), single analyses” value [2]?
**A.** The value was 106 J/g and 102 J/g and 101 J/g.

**Q.** What about the Enthalpy of fusion [2, 10] of the same compound?
**A.** Its Enthalpy of fusion is 6.31 kcal/mol and 6.12 kcal/mol.

**Q.** And the Enthalpy of fusion ([2]; DSC 50° C./min (average of three for Forms I and II), listed as I)?
**A.** The Enthalpy of fusion was 6.31 kcal/mol.

**Q.** And the “Heat of fusion (ΔH), average” value [2]?
**A.** Its value is 103 J/g.

**Q.** And the “% weight loss (at 150° C.)” value [3]?
**A.** Its value is 0.5%.

**Q.** And the Intrinsic dissolution rate ([4]; 25° C.)?
**A.** Its Intrinsic dissolution rate is 0.83 ± 0.06 μg/cm^−2/min.

**Q.** And the Intrinsic dissolution rate ([4]; 37° C.)?
**A.** Its Intrinsic dissolution rate is 2.05 ± 0.03 μg/cm^−2/min.

**Q.** And the “Thermodynamic stability relationship of forms” value [5]?
**A.** Its value is “thermodynamically stable crystal form”.

**Q.** Which “Physical stability of the amorphous form” value [6] does the source give for `COc1cc(/C=C/c2ccc(O)cc2)cc(OC)c1` [amorphous Pterostilbene] here?
**A.** The value was “rapidly crystallized”.

**Q.** Which Bioavailability [7] does the source give for `COc1cc(/C=C/c2ccc(O)cc2)cc(OC)c1` [Pterostilbene, trans-3,5-dimethoxy-4′-hydroxystilbene] here?
**A.** The Bioavailability was “poor”.

**Q.** And the Solubility in water [8]?
**A.** Its Solubility in water is “poor”.

**Q.** What does the source list for `COc1cc(/C=C/c2ccc(O)cc2)cc(OC)c1` [Form V]?
**A.** Sorption (5-95-5% RH) ([1]; listed as V): 0.8 weight %; Desorption (5-95-5% RH) ([1]; listed as V): 0.5 weight %; % weight loss (at 150° C.) ([3]; listed as V): 0.4%

**Q.** With `COc1cc(/C=C/c2ccc(O)cc2)cc(OC)c1` [Form III] as the compound, how does the “Sorption (5-95-5% RH)” value [1] read?
**A.** Its value is 0.6 weight %.

**Q.** What about the “Desorption (5-95-5% RH)” value [1] of the same compound?
**A.** The value was 0.5 weight %.

**Q.** What about the “Heat of fusion (ΔH), single analyses” value [2] of the same compound?
**A.** The value was “approximately 75 J/g”.

**Q.** What about the Enthalpy of fusion [2, 10] of the same compound?
**A.** Its Enthalpy of fusion is roughly 4.59 kcal/mol.

**Q.** What about the Enthalpy of fusion ([2]; DSC 50° C./min (average of three for Forms I and II), listed as III) of the same compound?
**A.** The Enthalpy of fusion was 4.59 kcal/mol.

**Q.** What about the “% weight loss (at 150° C.)” value [3] of the same compound?
**A.** Its value is 0.2%.

**Q.** Which “Sorption (5-95-5% RH)” value ([1]; listed as IV) does the source give for `COc1cc(/C=C/c2ccc(O)cc2)cc(OC)c1` [Form IV] here?
**A.** Its value is 0.5/0.5 weight %.

**Q.** And the “Desorption (5-95-5% RH)” value ([1]; listed as IV)?
**A.** Its value is 0.5/0.5 weight %.

**Q.** And the “% weight loss (at 150° C.)” value ([3]; listed as IV)?
**A.** Its value is 0.2%.

**Q.** Which “Sorption (5-95-5% RH)” value [1] does the source give for `COc1cc(/C=C/c2ccc(O)cc2)cc(OC)c1` [Form II] here?
**A.** Its value is 0.2/0.2 weight %.

**Q.** And the “Desorption (5-95-5% RH)” value [1]?
**A.** The value was 0.2/0.2 weight %.

**Q.** And the Organic vapor stress [9]?
**A.** Its Organic vapor stress is “structurally unchanged”.

**Q.** What about the Heat stress ([9]; 80° C. for 3 days) of the same compound?
**A.** Its Heat stress is “conversion to Form I”.

**Q.** What about the “Chemical stability on ambient exposure” value ([9]; ambient (air, but not light) exposure, 34 days) of the same compound?
**A.** Its value is “chemically unchanged”.

**Q.** And the “Structural stability on ambient exposure” value ([9]; ambient (air, but not light) exposure, 70 days)?
**A.** Its value is “structurally unchanged”.

**Q.** What about the “Hydrate formation in water slurry” value ([9]; ambient and elevated temperature water slurry) of the same compound?
**A.** The value was “No hydrate was observed”.

**Q.** And the Moderate humidity stress ([9]; ambient and elevated temperatures)?
**A.** Its Moderate humidity stress is “did not result in deliquescence”.

**Q.** And the “Resulting material of water slurry” value ([9]; ambient temperature)?
**A.** The value was “Form II”.

**Q.** What about the “Resulting material of water slurry” value ([9]; elevated temperature) of the same compound?
**A.** The value was “Form I”.

**Q.** What about the Enthalpy of fusion ([2]; DSC 10° C./min) of the same compound?
**A.** The Enthalpy of fusion was roughly 5.64 kcal/mol.

**Q.** And the “Heat of fusion (ΔH)” value ([2]; DSC 10° C./min)?
**A.** The value was “approximately 92 J/g”.

**Q.** And the Enthalpy of fusion ([2]; DSC 10° C./min, listed as II)?
**A.** Its Enthalpy of fusion is 5.64 kcal/mol.

**Q.** What about the “Heat of fusion (ΔH), single analyses” value [2] of the same compound?
**A.** Its value is 100 J/g and 91 J/g and 92 J/g.

**Q.** And the Enthalpy of fusion [2, 10]?
**A.** The Enthalpy of fusion was 5.78 kcal/mol.

**Q.** What about the Enthalpy of fusion ([2]; DSC 50° C./min (average of three for Forms I and II), listed as II) of the same compound?
**A.** Its Enthalpy of fusion is 5.78 kcal/mol.

**Q.** And the “Heat of fusion (ΔH), average” value [2]?
**A.** Its value is 94 J/g.

**Q.** What about the “% weight loss (at 150° C.)” value [3] of the same compound?
**A.** Its value is 0.2%.

**Q.** And the Intrinsic dissolution rate ([4]; 25° C.)?
**A.** Its Intrinsic dissolution rate is 0.90 ± 0.03 μg/cm^−2/min.

**Q.** And the Intrinsic dissolution rate ([4]; 37° C.)?
**A.** The Intrinsic dissolution rate was 2.35 ± 0.08 μg/cm^−2/min.

**Q.** What about the “Thermodynamic stability relationship of forms” value [5] of the same compound?
**A.** Its value is “thermodynamically favored compared to Forms III-V”.
